PubChem BioAssay (NCI)
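Where inhibition never reached the appropriate level, the endpoint shown equals the highest concentration tested. Otherwise, values were interpolated linearly from a five-concentration, 48-hour dose response in 96-well plates. GI50 marks 50% less growth. At the TGI there is no net growth.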

Legend:
Assay in all cases: inhibition of tumour cell growth, NCI panel, 48 h
ACHN renal = system: ACHN renal
LOX IMVI melanoma = system: LOX IMVI melanoma
TK-10 renal = system: TK-10 renal
M14 melanoma = system: M14 melanoma
RXF 393 renal = system: RXF 393 renal
DMS 273 small cell lung = system: DMS 273 small cell lung
SNB-75 CNS = system: SNB-75 CNS
UACC-62 melanoma = system: UACC-62 melanoma
DLD-1 colon = system: DLD-1 colon
DU-145 prostate = system: DU-145 prostate

| Structure (SMILES) | TGI (ACHN renal) | TGI (LOX IMVI melanoma) | TGI (TK-10 renal) | TGI (M14 melanoma) | TGI (RXF 393 renal) | TGI (DMS 273 small cell lung) | TGI (SNB-75 CNS) | TGI (UACC-62 melanoma) | TGI (DLD-1 colon) | GI50 (UACC-62 melanoma) | GI50 (ACHN renal) | GI50 (LOX IMVI melanoma) | GI50 (TK-10 renal) | GI50 (M14 melanoma) | GI50 (DU-145 prostate) | TGI (DU-145 prostate) | GI50 (RXF 393 renal) | GI50 (SNB-75 CNS) | GI50 (DLD-1 colon) |
| --- | --- | --- | --- | --- | --- | --- | --- | --- | --- | --- | --- | --- | --- | --- | --- | --- | --- | --- | --- |
| Cc1ccc(C=NC23CC4CC(CC(C4)C2)C3)cc1 | > 100 µM | > 100 µM | > 100 µM | > 100 µM | > 100 µM | > 100 µM | > 100 µM |  |  |  |  |  |  |  |  |  |  |  |  |
| CC1(C(=O)O)CCOc2ccccc21 (stereo unspecified) | > 100 µM | > 100 µM | > 100 µM | > 100 µM | > 100 µM |  | > 100 µM | > 100 µM | > 100 µM |  |  |  |  |  |  |  |  |  |  |
| COc1cccc(CCC(=O)c2cc3c(N)c(C(=O)Nc4cccc(Cl)c4C)sc3nc2C)c1 | > 100 µM | > 100 µM | > 100 µM | > 100 µM | 2.95 µM |  | 1.54 µM | > 100 µM |  | 0.407 µM | 0.743 µM | 0.664 µM | 6.46 µM | 0.446 µM | 1.91 µM | > 100 µM | 0.393 µM | 0.193 µM |  |
| Clc1ccc(CNc2nccc(-c3cnn4ncccc34)n2)cc1 | > 25 µM | > 25 µM | > 23.5 µM | > 17 µM | 10.2 µM |  | 12.8 µM | 8.73 µM |  | 3.74 µM | 5.95 µM | 6.12 µM | 8.71 µM | 7.09 µM | 8.73 µM | > 25 µM | 4.88 µM | 6.28 µM |  |
| COc1nc2c(nc(N)n2C2OCC(O)C(O)C2O)c(=O)n1C (stereo unspecified) | > 100 µM | > 100 µM | > 100 µM | > 100 µM | > 100 µM |  | > 100 µM | > 100 µM | > 100 µM |  |  |  |  |  |  |  |  |  |  |
| COc1cc2c3c(n(CCCBr)c(=O)c2cc1OC)-c1ccc(F)cc1C3=O | 36.3 µM | 30.1 µM | > 100 µM | > 100 µM | > 100 µM |  | 28.2 µM | 24.5 µM |  | 3.93 µM | 4.47 µM | 5.48 µM | 32.7 µM | 8.92 µM | 4.33 µM | 20.6 µM | 34.4 µM | 12.9 µM |  |
| CCOC(=O)c1ccc(N2C(=O)Cc3ccccc3C2=O)cc1 | > 100 µM |  | > 100 µM |  | > 100 µM | > 100 µM | > 100 µM | > 100 µM |  |  |  |  |  |  |  |  |  |  |  |
| CCC1(NC(=O)c2cc(F)c(F)c(F)c2F)C(=O)NC(=O)N(C(C)C)C1=O (stereo unspecified) | > 100 µM | 54.5 µM | > 100 µM | 34.6 µM | 59.1 µM |  | 45.9 µM | 34.1 µM |  | 15.7 µM | 73.5 µM | 16.7 µM | > 100 µM | 10.3 µM | 33.7 µM | > 100 µM | 25.3 µM | 21.3 µM |  |
| COc1cc(F)c(/C=C/c2cc(/C=C/c3cc(OC)c(OC)cc3F)n(-c3cc(F)cc(F)c3)n2)cc1OC | 46.2 µM | 8.3 µM | 28.3 µM | 3.53 µM | 18.4 µM |  | 14.4 µM | 3.32 µM |  | 1.65 µM | 18.1 µM | 2.62 µM | 3.63 µM | 1.74 µM | 3.68 µM | 18.1 µM | 5.07 µM | 2.42 µM |  |
| Nc1ccc(C(OC(=O)c2cc3ccccc3c(Cc3c(O)c(C(=O)OC(c4ccc(N)cc4)(c4ccc(N)cc4)c4ccc(N)cc4)cc4ccccc34)c2O)(c2ccc(N)cc2)c2ccc(N)cc2)cc1 | 54 µM | 43.4 µM | 21.3 µM | 19.1 µM | 6.7 µM |  | 11.7 µM | 11.9 µM |  | 1.98 µM | 2.49 µM | 1.41 µM | 5.23 µM | 0.993 µM | 2.18 µM | 15 µM | 1.83 µM | 0.497 µM |  |
| CC(=O)/C=C1\CC(=O)Nc2ccccc2N1 | > 100 µM | > 100 µM | > 100 µM | > 100 µM | > 100 µM |  | > 100 µM | > 100 µM | > 100 µM |  |  |  |  |  |  |  |  |  |  |
| OCC(CCc1c[nH]c2ccccc12)c1c[nH]c2ccccc12 (stereo unspecified) | 45.1 µM | 27.3 µM | 37.8 µM | 28.6 µM | 30.8 µM |  | 45.7 µM | 27 µM |  |  |  |  |  |  |  | 32.7 µM |  |  |  |
| CCc1ccc2nccc(NCCCN(C)C)c2c1[N+](=O)[O-] | > 100 µM | > 100 µM | > 100 µM | 67.4 µM | > 100 µM |  | > 100 µM | > 100 µM |  |  |  |  |  |  |  | > 100 µM |  |  |  |
| CC1(C)CC([P+](c2ccccc2)(c2ccccc2)c2ccccc2)=NN1 | > 100 µM | > 100 µM | 16.6 µM | > 100 µM | > 100 µM |  | > 100 µM | > 100 µM |  | 3.17 µM | 60.2 µM | 3.74 µM | 1.47 µM | 11.4 µM | 4.34 µM | > 100 µM | 28.2 µM | 5.3 µM |  |
| CN(C)CCSCCO | > 100 µM | > 100 µM | > 100 µM | > 100 µM | > 100 µM |  | > 100 µM | > 100 µM |  |  |  |  |  |  |  | > 100 µM |  |  |  |
| c1ccc(B2OCC(C3OB(c4ccccc4)OC4COB(c5ccccc5)OC43)O2)cc1 (stereo unspecified) | > 100 µM | > 100 µM | > 100 µM | > 100 µM | > 100 µM |  | > 100 µM | > 100 µM |  |  |  |  |  |  |  | > 100 µM |  |  |  |
| N#Cc1ccc(Oc2cccc(Oc3ccccc3)c2)cc1C#N | > 100 µM |  | > 100 µM | > 100 µM | > 100 µM |  | 31.6 µM | > 100 µM | > 100 µM | > 100 µM |  |  | > 100 µM | > 100 µM |  |  |  |  | > 100 µM |
| O=C(N/N=C/c1ccc(Cl)cc1Cl)c1ccc2nc(-c3ccc(Cl)cc3)[nH]c2c1 | 3.17 µM | 2.94 µM | 4.3 µM | 3.84 µM | 3.27 µM |  | 3.62 µM | 3.4 µM |  | 1.78 µM | 1.74 µM | 1.57 µM | 2.06 µM | 1.65 µM | 1.76 µM | 3.44 µM | 1.61 µM | 1.59 µM |  |
| Clc1cc(-c2ccccc2)nc2ccccc12 | > 100 µM | > 100 µM | 71.6 µM | > 100 µM | > 100 µM |  | 83.5 µM | > 100 µM |  |  |  |  |  |  |  | > 100 µM |  |  |  |
